Data published in patent publication US20130190289A1, “COMPOUNDS AND METHODS FOR THE TREATMENT OR PREVENTION OF FLAVIVIRUS INFECTIONS” (priority 2010, published 2013).
Like-named read-outs stand apart in the source and are kept apart here.

Columns and labels:
[1] = [3H]Thymidine incorporation assay (cell toxicity); details: human
[2] = system: HCV replicon (genotype 1b) in Huh7 cell line ET; assay: microbe, parasite or virus in culture; assay type: cell-based, HCV genotype 1b; details: Hepatitis C virus
[3] = Huh-7, read-out: HCV-Replicon-(Luci-ET) 1b_IC50
[4] = Huh-7, 96 h, read-out: HCV-Replicon (Luci-ET)-1b_IC50

SMILES	CC50 at 72 h [1] [µM]	IC50 [2, 3] [µM]	IC50 [2, 4] [µM]
C[C@@H](C(=O)N1CC[C@H](CO)C1)N(c1cc(C#CC(C)(C)C)sc1C(=O)O)C(=O)[C@H]1CC[C@H](C)CC1 [Compound 39, 5-(3,3-Dimethylbut-1-ynyl)-3-[[(1S)-2-[(3S)-3-(hydroxymethyl)pyrrolidin-1-yl]-1-methyl-2-oxo-ethyl]-(trans-4-methylcyclohexanecarbonyl)amino]thiophene-2-carboxylic acid]	> 100	< 0.1	
C[C@H]1CC[C@H](C(=O)N(CC(=O)N2CCOCC2)c2cc(C#CC3CC3)sc2C(=O)O)CC1 [Compound 128, 5-(2-cyclopropylethynyl)-3-[(trans-4-methylcyclohexanecarbonyl)-(2-morpholino-2-oxo-ethyl)amino]thiophene-2-carboxylic acid]	> 100		< 0.1
CC[C@@H](C(=O)N(C)C)N(c1cc(C#CC(C)C)sc1C(=O)O)C(=O)[C@H]1CC[C@H](C)CC1 [Compound 89, 3-[[(1S)-1-(dimethylcarbamoyl)propyl]-(trans-4-methylcyclohexanecarbonyl)amino]-5-(3-methylbut-1-ynyl)thiophene-2-carboxylic acid]	> 100	< 0.1	
CN(C(=O)CN(c1cc(C#CC(C)(C)C)sc1C(=O)O)C(=O)[C@H]1CC[C@H](C)CC1)C1CCOCC1 [Compound 43]	> 100	< 0.1	
COC1CCN(C(=O)CN(c2cc(C#CC(C)(C)C)sc2C(=O)O)C(=O)[C@H]2CC[C@H](C)CC2)CC1 [Compound 44]	> 100	< 0.1	
CNC(=O)CN(C(=O)C1CCC(C)CC1)c1cc(C#CC(C)C)sc1C(=O)O (stereo not drawn) [Compound 70]	> 100	< 0.1	
CO[C@H](C)[C@H](C(=O)N1CCOCC1)N(c1cc(C#CC(C)(C)C)sc1C(=O)O)C(=O)[C@H]1CC[C@H](C)CC1 [Compound 74, 5-(3,3-dimethylbut-1-ynyl)-3-[[(1R,2R)-2-methoxy-1-(morpholine-4-carbonyl)propyl]-(trans-4-methylcyclohexanecarbonyl)amino]thiophene-2-carboxylic acid]	> 100	< 0.1	
COC[C@H](C(=O)N(C)C)N(c1cc(C#CC(C)(C)C)sc1C(=O)O)C(=O)[C@H]1CC[C@H](C)CC1 [Compound 22, 3-[[(1R)-2-(dimethylamino)-1-(methoxymethyl)-2-oxo-ethyl]-(trans-4-methylcyclohexanecarbonyl)amino]-5-(3,3-dimethylbut-1-ynyl)thiophene-2-carboxylic acid]	> 100	< 0.1	
Cc1ccc(C(=O)N(CC(=O)N2CCOCC2)c2cc(C#CC(C)(C)C)sc2C(=O)O)cc1 [Compound 125, 5-(3,3-dimethylbut-1-ynyl)-3-[(4-methylbenzoyl)-(2-morpholino-2-oxo-ethyl)amino]thiophene-2-carboxylic acid]	> 100		0.1 to 1
CCN(CC)C(=O)[C@H](C)N(c1cc(C#CC(C)(C)C)sc1C(=O)O)C(=O)[C@H]1CC[C@H](C)CC1 [Compound 8, 3-[[(1S)-2-(diethylamino)-1-methyl-2-oxo-ethyl]-(trans-4-methylcyclohexanecarbonyl)amino]-5-(3,3-dimethylbut-1-ynyl)thiophene-2-carboxylic acid]	> 100	< 0.1	
CCOC[C@@H](C(=O)N1CCOCC1)N(c1cc(C#CC(C)(C)C)sc1C(=O)O)C(=O)[C@H]1CC[C@H](C)CC1 [Compound 87, 5-(3,3-Dimethylbut-1-ynyl)-3-[[(1S)-1-(ethoxymethyl)-2-morpholino-2-oxo-ethyl]-(trans-4-methylcyclohexanecarbonyl)amino]thiophene-2-carboxylic acid]	> 100	< 0.1	
C[C@@H](CC(=O)N(C)C)N(c1cc(C#CC(C)(C)C)sc1C(=O)O)C(=O)[C@H]1CC[C@H](C)CC1 [Compound 96, 3-((trans)-N—((S)-4-(dimethylamino)-4-oxobutan-2-yl)-4-methylcyclohexanecarboxamido)-5-(3,3-dimethylbut-1-yn-1-yl)thiophene-2-carboxylic acid]	10 to 100	< 0.1	
CC(C)(C)C#Cc1cc(N(CC(=O)N2CCCCC2)C(=O)[C@H]2CC[C@H](C)CC2)c(C(=O)O)s1 [Compound 46]	> 100	< 0.1	
COC[C@@H](C(=O)N1CCOCC1)N(C(=O)C1CCCCC1)c1cc(C#CC(C)(C)C)sc1C(=O)O [Compound 24, 3-[Cyclohexanecarbonyl-[(1S)-1-(methoxymethyl)-2-morpholino-2-oxo-ethyl]amino]-5-(3,3-dimethylbut-1-ynyl)thiophene-2-carboxylic acid]	> 100	< 0.1	
CC(C)(C)C#Cc1cc(N(CC(=O)N2CCOCC2)C(=O)c2ccc(Cl)cc2)c(C(=O)O)s1 [Compound 123, 3-[(4-chlorobenzoyl)-(2-morpholino-2-oxo-ethyl)amino]-5-(3,3-dimethylbut-1-ynyl)thiophene-2-carboxylic acid]	> 100		< 0.1
COC(C)(C)C#Cc1cc(N(CC(=O)N2CCOCC2)C(=O)[C@H]2CC[C@H](C)CC2)c(C(=O)O)s1 [Compound 129, 5-(3-methoxy-3-methyl-but-1-ynyl)-3-[(trans-4-methylcyclohexanecarbonyl)-(2-morpholino-2-oxo-ethyl)amino]thiophene-2-carboxylic acid]	> 100		0.1 to 1
COC1CN(C(=O)C[C@H](C)N(c2cc(C#CC(C)(C)C)sc2C(=O)O)C(=O)[C@H]2CC[C@H](C)CC2)C1 [Compound 116, 5-(3,3-Dimethylbut-1-ynyl)-3-[[(1S)-3-(3-methoxyazetidin-1-yl)-1-methyl-3-oxo-propyl]-(trans-4-methylcyclohexanecarbonyl)amino]thiophene-2-carboxylic acid]	> 100	< 0.1	
CN(C)C(=O)[C@H](CO)N(c1cc(C#CC(C)(C)C)sc1C(=O)O)C(=O)[C@H]1CC[C@H](C)CC1 [Compound 34, 3-[[(1S)-2-(dimethylamino)-1-(hydroxymethyl)-2-oxo-ethyl]-(trans-4-methylcyclohexanecarbonyl)amino]-5-(3,3-dimethylbut-1-ynyl)thiophene-2-carboxylic acid]	> 100	< 0.1	
CN1CC(N(c2cc(C#CC(C)(C)C)sc2C(=O)O)C(=O)[C@H]2CC[C@H](C)CC2)CC1=O (relative stereo) [Compound 107, 5-(3,3-Dimethylbut-1-ynyl)-3-[(trans-4-methylcyclohexanecarbonyl)-(1-methyl-5-oxo-pyrrolidin-3-yl)amino]thiophene-2-carboxylic acid]	> 100	< 0.1	
CC[C@@H](C(=O)N1CCCOCC1)N(c1cc(C#CC(C)(C)C)sc1C(=O)O)C(=O)[C@H]1CC[C@H](C)CC1 [Compound 84, 5-(3,3-Dimethylbut-1-ynyl)-3-[(trans-4-methylcyclohexanecarbonyl)-[(1S)-1-(1,4-oxazepane-4-carbonyl)propyl]amino]thiophene-2-carboxylic acid]	10 to 100	< 0.1	
CC1CCC(C(=O)N(c2cc(C#CC(C)(C)C)sc2C(=O)O)[C@@H]2CCN(C)C2=O)CC1 (single isomer, unassigned) [Compound 92]	> 100	< 0.1	
